According to ChEMBL document CHEMBL1201862, “PubChem BioAssay data set” (2004):
The source made the active and inactive calls. Rule as the data show it, for most assays here: actives have a measured IC50 and inactives only a lower limit.

Legend:
Hexokinase HKDC1 = Hexokinase HKDC1 (Homo sapiens, UniProt Q2TB90); test: HKDC1 hexokinase activators, dose response, biochemical, W721R variant (AID 504730); type: functional
Hexokinase-1 = Hexokinase-1 (Homo sapiens, UniProt P19367); test: hexokinase 1 activators, dose response, selectivity assay for HKDC1 activator project, biochemical (AID 504762); type: functional
Sequence of Hexokinase-1 (P19367 whole entry): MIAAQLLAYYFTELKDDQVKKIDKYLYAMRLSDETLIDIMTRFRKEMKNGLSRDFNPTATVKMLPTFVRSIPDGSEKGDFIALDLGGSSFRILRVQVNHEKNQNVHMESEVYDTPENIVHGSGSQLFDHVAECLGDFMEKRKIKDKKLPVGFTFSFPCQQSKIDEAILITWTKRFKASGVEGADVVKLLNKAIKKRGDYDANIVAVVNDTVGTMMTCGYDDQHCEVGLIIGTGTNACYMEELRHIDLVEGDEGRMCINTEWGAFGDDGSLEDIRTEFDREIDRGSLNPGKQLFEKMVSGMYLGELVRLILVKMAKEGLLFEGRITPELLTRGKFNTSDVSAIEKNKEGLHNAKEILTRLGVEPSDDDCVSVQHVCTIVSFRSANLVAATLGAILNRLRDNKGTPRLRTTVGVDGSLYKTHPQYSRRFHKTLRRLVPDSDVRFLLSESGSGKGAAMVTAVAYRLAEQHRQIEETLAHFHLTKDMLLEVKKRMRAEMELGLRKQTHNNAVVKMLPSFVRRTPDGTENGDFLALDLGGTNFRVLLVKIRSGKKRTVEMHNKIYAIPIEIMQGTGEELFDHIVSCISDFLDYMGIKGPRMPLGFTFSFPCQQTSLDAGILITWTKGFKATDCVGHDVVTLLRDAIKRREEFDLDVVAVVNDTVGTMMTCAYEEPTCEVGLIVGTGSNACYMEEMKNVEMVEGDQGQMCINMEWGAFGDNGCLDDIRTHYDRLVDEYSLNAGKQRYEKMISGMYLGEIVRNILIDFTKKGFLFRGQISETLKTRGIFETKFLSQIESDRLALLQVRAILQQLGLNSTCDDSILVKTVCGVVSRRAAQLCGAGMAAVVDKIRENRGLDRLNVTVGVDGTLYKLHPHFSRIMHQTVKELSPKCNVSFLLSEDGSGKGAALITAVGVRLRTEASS

Genome polyprotein = Genome polyprotein (Hepatitis C virus, UniProt Q2Q167); test: HCV core protein dimerization inhibitors, dose response, biochemical, TR-FRET (AID 2159); parameters: species or system Hepacivirus hominis;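 also: blocks dimerization of HCV core protein measured by TR-FRET between tagged core106 pairs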
Sequence of Genome polyprotein (Q2Q167 whole entry): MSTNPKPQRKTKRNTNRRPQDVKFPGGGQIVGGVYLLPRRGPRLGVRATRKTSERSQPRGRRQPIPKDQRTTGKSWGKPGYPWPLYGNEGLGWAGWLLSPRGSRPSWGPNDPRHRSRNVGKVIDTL

SUMO-activating enzyme [1] = target: T1, SUMO-activating enzyme (Homo sapiens, UniProt Q9UBT2); test: SUMOylation inhibitor hit validation, confirmation, SUMOylation inhibitor project, biochemical, AlphaScreen (AID 2018); type: functional
T1 sequence (Q9UBE0 whole entry): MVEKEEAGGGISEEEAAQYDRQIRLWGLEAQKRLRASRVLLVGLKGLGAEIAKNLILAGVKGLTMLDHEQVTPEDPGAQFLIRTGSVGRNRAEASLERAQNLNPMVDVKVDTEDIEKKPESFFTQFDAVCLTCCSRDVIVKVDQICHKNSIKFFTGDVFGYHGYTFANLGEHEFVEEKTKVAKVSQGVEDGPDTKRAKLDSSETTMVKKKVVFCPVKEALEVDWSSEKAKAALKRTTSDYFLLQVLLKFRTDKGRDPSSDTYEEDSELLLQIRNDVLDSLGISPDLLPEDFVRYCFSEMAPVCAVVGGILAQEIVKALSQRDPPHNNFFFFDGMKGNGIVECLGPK
T1 sequence (Q9UBT2 whole entry): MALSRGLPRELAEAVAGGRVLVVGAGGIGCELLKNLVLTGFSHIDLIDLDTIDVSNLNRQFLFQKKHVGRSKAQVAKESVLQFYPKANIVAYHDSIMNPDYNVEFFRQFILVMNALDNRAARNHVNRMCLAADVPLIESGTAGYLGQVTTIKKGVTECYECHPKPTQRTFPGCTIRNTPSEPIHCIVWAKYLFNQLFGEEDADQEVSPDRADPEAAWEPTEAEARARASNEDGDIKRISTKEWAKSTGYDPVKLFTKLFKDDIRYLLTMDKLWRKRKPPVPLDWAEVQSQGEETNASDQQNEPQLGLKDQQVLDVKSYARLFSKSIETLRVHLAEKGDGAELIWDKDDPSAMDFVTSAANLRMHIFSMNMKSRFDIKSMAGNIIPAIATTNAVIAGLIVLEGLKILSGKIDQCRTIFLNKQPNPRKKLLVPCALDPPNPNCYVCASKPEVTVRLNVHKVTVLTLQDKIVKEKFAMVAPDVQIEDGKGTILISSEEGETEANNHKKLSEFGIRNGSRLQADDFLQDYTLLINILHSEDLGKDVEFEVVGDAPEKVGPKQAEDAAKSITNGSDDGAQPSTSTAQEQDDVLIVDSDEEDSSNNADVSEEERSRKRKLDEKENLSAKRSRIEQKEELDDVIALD

SUMO-activating enzyme [2] = target: T1, SUMO-activating enzyme; test: inhibitors of in vitro SUMOylation cascade, primary screen, biochemical, HTRF, uHTS (AID 2006); type: protein-complex assay
[3] = target: T2, Carboxy-terminal domain RNA polymerase II polypeptide A small phosphatase 1 (Homo sapiens, UniProt Q9GZU7); test: inhibitors of CTDSP1, concentration-response testing, biochemical assay, absorbance-based, actives from ultra-high-throughput screening (AID 540297); type: functional
T2 sequence (Q9GZU7 whole entry): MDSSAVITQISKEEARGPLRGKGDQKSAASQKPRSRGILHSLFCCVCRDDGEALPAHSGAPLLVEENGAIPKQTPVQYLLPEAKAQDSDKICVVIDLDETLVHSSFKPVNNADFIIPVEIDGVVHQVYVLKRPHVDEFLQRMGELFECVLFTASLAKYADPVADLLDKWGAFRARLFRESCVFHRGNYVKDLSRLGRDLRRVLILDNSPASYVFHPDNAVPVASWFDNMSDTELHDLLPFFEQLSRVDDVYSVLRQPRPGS

[4] = target: DNA (cytosine-5)-methyltransferase 1 (Homo sapiens, UniProt P26358); test: DNMT1 methyltransferase inhibitors, confirmation, biochemical, fluorescent molecular beacon (AID 602386); type: functional
[5] = target: 26S proteasome non-ATPase regulatory subunit 14 (Homo sapiens, UniProt O00487); test: inhibition of proteasome subunit RPN11 – biochemical, fluorescence polarization, uHTS hits, confirmation (AID 602368); type: functional
[6] = target: 72 kDa type IV collagenase (Homo sapiens, UniProt P08253); test: Dose Response validation of uHTS RPN11 inhibitor hits using a MMP-2 Fluorescence assay.; type: functional
Sequence of 72 kDa type IV collagenase (P08253 whole entry): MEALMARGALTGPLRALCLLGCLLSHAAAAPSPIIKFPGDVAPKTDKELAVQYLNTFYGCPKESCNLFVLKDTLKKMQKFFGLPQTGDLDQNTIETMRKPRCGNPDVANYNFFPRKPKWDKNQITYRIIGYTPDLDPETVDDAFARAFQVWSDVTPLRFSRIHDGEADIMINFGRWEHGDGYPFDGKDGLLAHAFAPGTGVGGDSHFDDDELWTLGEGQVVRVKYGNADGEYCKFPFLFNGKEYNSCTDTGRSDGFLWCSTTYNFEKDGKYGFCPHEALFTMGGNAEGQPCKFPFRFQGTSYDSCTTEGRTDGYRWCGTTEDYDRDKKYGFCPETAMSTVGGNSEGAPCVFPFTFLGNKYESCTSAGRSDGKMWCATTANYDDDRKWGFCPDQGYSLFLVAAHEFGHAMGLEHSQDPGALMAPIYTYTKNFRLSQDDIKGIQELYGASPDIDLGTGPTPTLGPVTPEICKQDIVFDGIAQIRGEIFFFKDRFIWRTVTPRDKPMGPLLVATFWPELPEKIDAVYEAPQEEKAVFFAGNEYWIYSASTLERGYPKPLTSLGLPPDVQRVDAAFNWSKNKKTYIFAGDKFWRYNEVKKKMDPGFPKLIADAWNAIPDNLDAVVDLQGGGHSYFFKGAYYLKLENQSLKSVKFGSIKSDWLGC

Prothrombin = Prothrombin (Bos taurus, UniProt P00735); test: thrombin inhibition, dose response, biochemical, fluorescence polarization, uHTS hits (AID 602369); type: functional
[7] = target: T3, Small ubiquitin-related modifier 1 (Homo sapiens, UniProt P63165); test: inhibitors of SUMO1 peptide binding, dose response, biochemical, fluorescence polarization, uHTS hits (AID 624382); type: functional; conditions: read-out: IC50_Mean
T3 sequence (P63165 whole entry): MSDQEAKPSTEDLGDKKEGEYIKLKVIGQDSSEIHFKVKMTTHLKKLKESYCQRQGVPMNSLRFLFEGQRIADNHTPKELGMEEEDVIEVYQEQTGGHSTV

[8] = target: T3, Small ubiquitin-related modifier 1; test: inhibitors of SUMO1 partner interactions, dose response, biochemical, FRET (AID 624383); type: functional; conditions: read-out: IC50_Mean
[9] = target: T4, Peroxisome proliferator-activated receptor gamma (Homo sapiens, UniProt P37231); test: PPARg ligand-binding domain binders, dose response, PPARg partial agonist project, biochemical, TR-FRET, LanthaScreen (AID 504446)
T4 sequence (P37231 whole entry): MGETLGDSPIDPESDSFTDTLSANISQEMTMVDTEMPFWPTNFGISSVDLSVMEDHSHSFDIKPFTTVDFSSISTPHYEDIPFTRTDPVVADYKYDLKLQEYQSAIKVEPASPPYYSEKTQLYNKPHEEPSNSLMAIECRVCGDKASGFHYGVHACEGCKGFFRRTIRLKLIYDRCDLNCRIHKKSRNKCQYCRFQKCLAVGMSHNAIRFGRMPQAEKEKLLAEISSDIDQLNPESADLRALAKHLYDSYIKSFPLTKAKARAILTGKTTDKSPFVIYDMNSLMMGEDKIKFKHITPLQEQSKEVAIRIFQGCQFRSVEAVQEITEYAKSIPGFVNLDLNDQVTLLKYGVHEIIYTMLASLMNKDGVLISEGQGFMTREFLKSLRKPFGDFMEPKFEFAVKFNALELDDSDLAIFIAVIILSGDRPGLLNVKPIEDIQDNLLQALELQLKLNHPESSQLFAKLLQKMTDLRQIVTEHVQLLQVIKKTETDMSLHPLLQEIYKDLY

[10] = target: T4, Peroxisome proliferator-activated receptor gamma; test: PPARg ligand-binding domain binders, dose response, PPARg partial agonist project, biochemical, fluorescence polarization, PolarScreen (AID 504453)
[11] = target: T4, Peroxisome proliferator-activated receptor gamma; test: PPARg partial agonists, dose response, cell-based, luminescence, assay provider (AID 504447); type: functional
Coagulation factor XII = Coagulation factor XII (Homo sapiens, UniProt P00748); type: functional;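 also: activated factor XIIa alpha cleaving a fluorogenic AMC peptide substrate; inhibitor potency from loss of enzyme activity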
[12] = target: T5, Tyrosine-protein phosphatase non-receptor type 22 (Homo sapiens, UniProt Q9Y2R2); test: SAR LYP1 Fluorescent Assay using pCAP substrate for In Vitro dose response studies - Set 2. [Related pubchem assays (depositor defined):AID1779, AID1784, AID2135, AID449727]; type: functional
T5 sequence (Q9Y2R2 whole entry): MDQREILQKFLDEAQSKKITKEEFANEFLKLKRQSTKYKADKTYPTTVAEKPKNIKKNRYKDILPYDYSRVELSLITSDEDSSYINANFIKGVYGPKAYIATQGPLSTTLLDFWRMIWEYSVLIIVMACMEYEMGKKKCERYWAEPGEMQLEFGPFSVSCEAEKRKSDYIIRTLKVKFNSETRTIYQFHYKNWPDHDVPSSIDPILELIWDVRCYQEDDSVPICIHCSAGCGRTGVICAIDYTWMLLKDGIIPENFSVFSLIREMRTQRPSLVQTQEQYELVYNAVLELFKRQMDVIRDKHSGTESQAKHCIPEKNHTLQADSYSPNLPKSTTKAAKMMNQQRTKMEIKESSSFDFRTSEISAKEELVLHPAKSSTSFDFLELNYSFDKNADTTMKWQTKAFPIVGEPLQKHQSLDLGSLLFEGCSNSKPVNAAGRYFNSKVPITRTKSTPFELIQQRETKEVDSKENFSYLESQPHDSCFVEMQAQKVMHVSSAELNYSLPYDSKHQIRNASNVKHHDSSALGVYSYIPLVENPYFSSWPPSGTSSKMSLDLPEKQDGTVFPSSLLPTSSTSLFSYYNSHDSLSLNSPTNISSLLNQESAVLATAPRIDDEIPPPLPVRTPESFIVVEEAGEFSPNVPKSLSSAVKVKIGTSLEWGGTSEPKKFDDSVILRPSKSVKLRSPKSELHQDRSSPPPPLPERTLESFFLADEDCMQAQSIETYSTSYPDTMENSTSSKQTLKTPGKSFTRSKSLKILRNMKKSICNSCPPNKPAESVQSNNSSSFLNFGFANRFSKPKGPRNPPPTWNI

[13] = target: Tyrosine-protein phosphatase non-receptor type 12 (Homo sapiens, UniProt Q05209); test: SAR Selectivity Analysis of small molecule inhibitors of PEST using pCAP in a fluorescence assay. [Related pubchem assays (depositor defined):AID1779, AID1784, AID2135]; type: functional
[14] = target: T5, Tyrosine-protein phosphatase non-receptor type 22; test: SAR LYP1 Fluorescent Assay using OMFP substrate for In Vitro dose response studies - Set 3. [Related pubchem assays (depositor defined):AID1779, AID1784, AID2140, AID2686]; type: functional
[15] = target: T6, Tyrosine-protein phosphatase non-receptor type 7 (Homo sapiens, UniProt P35236); test: HePTP (PTPN7) phosphatase inhibitor potency, SAR follow-up, biochemical, set 2 (AID 449736); type: functional
T6 sequence (P35236 whole entry): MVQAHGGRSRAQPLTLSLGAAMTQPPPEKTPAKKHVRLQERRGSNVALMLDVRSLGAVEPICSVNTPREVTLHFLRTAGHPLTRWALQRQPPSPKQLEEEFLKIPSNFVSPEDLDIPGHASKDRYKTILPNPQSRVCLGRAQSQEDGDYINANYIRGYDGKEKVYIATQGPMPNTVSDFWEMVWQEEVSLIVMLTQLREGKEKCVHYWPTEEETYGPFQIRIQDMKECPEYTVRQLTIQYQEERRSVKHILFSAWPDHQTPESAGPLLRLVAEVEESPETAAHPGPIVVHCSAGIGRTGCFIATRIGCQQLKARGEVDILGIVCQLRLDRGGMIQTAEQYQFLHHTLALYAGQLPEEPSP

[16] = target: T5, Tyrosine-protein phosphatase non-receptor type 22; test: LYP (PTPN22) phosphatase inhibitor potency, SAR follow-up, biochemical, pCAP fluorogenic substrate, fluorescence, set 3 (AID 449727); type: functional
[17] = target: T5, Tyrosine-protein phosphatase non-receptor type 22; test: SAR LYP1 Fluorescent Assay using OMFP substrate for In Vitro dose response studies - Set 2. [Related pubchem assays (depositor defined):AID1779, AID1784, AID2140, AID449726, AID488869]; type: functional
[18] = target: T7, Runt-related transcription factor 1/Core-binding factor subunit beta (Homo sapiens, UniProt Q01196+Q13951); test: Confirmation of compounds inhibiting the binding between the RUNX1 Runt domain and CBFb-SMMHC via a fluorescence resonance energy transfer (FRET) assay. [Related pubchem assays (depositor defined):AID1434, AID1438, AID1496, AID1550, AID1645]; type: protein assay
T7 sequence (Q01196 whole entry, the tested form may be a part): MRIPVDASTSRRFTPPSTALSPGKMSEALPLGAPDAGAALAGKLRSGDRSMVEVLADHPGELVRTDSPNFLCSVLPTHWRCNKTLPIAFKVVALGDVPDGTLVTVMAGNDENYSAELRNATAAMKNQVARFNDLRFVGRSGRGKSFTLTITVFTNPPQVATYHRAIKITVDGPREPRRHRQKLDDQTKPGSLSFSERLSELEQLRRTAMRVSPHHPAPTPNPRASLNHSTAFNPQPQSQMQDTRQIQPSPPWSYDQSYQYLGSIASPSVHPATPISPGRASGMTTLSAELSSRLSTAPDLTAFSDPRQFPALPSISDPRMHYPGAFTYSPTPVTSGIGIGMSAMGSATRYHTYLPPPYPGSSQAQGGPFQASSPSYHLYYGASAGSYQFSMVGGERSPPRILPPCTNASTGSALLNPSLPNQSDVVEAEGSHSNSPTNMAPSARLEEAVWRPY
T7 sequence (Q13951 whole entry, the tested form may be a part): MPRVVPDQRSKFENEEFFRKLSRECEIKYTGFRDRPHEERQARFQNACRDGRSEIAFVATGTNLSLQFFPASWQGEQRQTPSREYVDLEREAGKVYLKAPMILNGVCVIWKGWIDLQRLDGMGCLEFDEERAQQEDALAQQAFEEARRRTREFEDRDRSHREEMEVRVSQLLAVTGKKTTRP

[19] = target: T7, Runt-related transcription factor 1/Core-binding factor subunit beta; test: inhibitors of RUNX1 Runt–CBFb-SMMHC binding, primary screen, biochemical, FRET, Cerulean-Runt, Venus-CBFb-SMMHC, uHTS (AID 1434); type: protein assay;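 also: partner is the CBFb-SMMHC leukemia fusion protein rather than wild-type CBFb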
[20] = target: T7, Runt-related transcription factor 1/Core-binding factor subunit beta; test: inhibitors of RUNX1 Runt–CBFb-SMMHC binding, biochemical, TR-FRET (AID 1438); type: protein assay
[21] = target: T7, Runt-related transcription factor 1/Core-binding factor subunit beta; test: Confirmation of compounds inhibiting the binding between the RUNX1 Runt domain and CBFb-SMMHC via a time resolved fluorescence resonance energy transfer (TR-FRET) assay. [Related pubchem assays (depositor defined):AID1434, AID1438, AID1496, AID1560, AID1645]; type: protein assay
[22] = target: Dual specificity tyrosine-phosphorylation-regulated kinase 1A (Rattus norvegicus, UniProt Q63470); type: biochemical, Homo sapiens
[23] = target: E3 ubiquitin-protein ligase XIAP (Homo sapiens, UniProt P98170); test: Counter Screen using XIAP-Bir3 for Chemical Antagonists of Bir1/2 domains of IAP-family anti-apoptotic proteins. [Related pubchem assays (depositor defined):AID1018, AID1449, AID1514, AID1638, AID1749, AID1750, AID488957, AID488963]
Sequence of E3 ubiquitin-protein ligase XIAP (P98170 whole entry): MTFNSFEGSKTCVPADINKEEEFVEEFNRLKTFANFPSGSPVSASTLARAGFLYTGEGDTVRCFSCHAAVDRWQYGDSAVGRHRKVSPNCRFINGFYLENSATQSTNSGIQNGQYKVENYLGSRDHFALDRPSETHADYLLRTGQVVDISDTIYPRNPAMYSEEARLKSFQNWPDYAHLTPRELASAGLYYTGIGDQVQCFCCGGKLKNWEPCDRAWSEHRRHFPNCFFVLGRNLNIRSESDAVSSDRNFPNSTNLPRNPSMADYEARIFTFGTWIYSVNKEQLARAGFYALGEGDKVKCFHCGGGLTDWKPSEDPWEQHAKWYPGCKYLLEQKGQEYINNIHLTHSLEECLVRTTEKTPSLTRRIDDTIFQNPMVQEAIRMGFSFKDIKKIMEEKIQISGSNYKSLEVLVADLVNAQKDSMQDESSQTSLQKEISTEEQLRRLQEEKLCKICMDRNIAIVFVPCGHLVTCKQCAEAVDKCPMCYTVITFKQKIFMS

Bcl-2-related protein A1 = target: T8, Bcl-2-related protein A1 (Mus musculus, UniProt Q07440); type: functional;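 also: confirmatory dose–response counterscreen on Bfl-1, used to check hits from a UBC13 polyubiquitin inhibitor campaign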
T8 sequence (Q07440 whole entry): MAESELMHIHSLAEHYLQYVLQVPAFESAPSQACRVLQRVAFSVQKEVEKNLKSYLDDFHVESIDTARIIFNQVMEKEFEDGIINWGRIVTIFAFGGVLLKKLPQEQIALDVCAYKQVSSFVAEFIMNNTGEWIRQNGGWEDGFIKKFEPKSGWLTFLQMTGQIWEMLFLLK

[24] = target: T9, Ubiquitin-conjugating enzyme E2 N (Homo sapiens, UniProt P61088); type: functional
T9 sequence (P61088 whole entry): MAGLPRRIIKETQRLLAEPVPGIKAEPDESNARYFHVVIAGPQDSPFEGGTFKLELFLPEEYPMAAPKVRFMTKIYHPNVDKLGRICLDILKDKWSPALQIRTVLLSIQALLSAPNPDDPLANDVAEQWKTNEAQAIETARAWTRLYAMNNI

[25] = target: T9, Ubiquitin-conjugating enzyme E2 N; type: functional; remark: listed apart in the source

Sequence of Hexokinase HKDC1 (Q2TB90 whole entry): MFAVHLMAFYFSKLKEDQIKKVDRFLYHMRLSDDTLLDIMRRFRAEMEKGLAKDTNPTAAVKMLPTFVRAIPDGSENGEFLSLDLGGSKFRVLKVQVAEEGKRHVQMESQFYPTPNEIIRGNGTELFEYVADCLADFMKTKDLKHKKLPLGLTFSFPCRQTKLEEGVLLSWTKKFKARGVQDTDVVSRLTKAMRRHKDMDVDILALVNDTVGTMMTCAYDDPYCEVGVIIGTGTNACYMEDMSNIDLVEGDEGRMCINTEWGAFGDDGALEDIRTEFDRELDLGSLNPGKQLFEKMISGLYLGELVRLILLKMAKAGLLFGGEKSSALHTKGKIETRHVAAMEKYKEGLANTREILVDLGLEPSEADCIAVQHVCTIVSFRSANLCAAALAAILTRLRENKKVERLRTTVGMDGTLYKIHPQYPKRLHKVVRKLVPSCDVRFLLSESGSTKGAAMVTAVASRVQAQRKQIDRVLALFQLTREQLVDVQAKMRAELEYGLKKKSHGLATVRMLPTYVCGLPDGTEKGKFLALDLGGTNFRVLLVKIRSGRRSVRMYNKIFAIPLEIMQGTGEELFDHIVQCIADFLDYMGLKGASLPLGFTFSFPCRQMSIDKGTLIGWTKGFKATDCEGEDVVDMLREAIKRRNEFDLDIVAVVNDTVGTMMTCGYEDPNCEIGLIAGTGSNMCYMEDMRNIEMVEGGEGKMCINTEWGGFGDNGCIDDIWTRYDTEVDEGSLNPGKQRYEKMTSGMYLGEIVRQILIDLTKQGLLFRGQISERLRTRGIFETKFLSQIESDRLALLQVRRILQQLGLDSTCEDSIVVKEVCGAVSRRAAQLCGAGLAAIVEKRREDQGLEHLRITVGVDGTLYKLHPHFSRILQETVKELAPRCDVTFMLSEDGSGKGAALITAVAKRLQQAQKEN

Compound: CCOC(=O)c1c(C)[nH]c(C2=NN=C(Nc3ccc(OCC)cc3)SC2)c1C
- EC50 (Hexokinase HKDC1): 19.4 µM (active)
- EC50 (Hexokinase-1): 21.1 µM (inactive)

Compound: COC(=O)c1c(NC(=O)COC(=O)c2ccc(NC(=O)CC#N)cc2)sc2c1CCCCC2
- IC50 (Genome polyprotein): > 49.8 µM (not active)
- IC50 (SUMO-activating enzyme [1]): 6.14 µM (active)
- IC50 (SUMO-activating enzyme [2]): 7.43 µM (active)
- IC50 [3]: 1.84 µM (active)
- IC50 [4]: 3.35 µM (active)
- IC50 [5]: 13.8 µM (active)
- IC50 [6]: > 100 µM (inactive)
- IC50 (Prothrombin): 85.9 µM (active)
- IC50 [7]: > 66.6 µM (inactive)
- IC50 [8]: 6.24 µM (active)

Compound: CCn1cnc2c1c(=O)n(Cc1cccc([N+](=O)[O-])c1)c(=O)n2Cc1ccccc1
- IC50 [9]: 0.6 µM (active)
- IC50 [10]: 0.173 µM (active)
- EC50 [11]: 0.181 µM (active)

Compound: Cc1ccc(S(=O)(=O)CCN2C=CC(C(F)(F)F)=NCC2)cc1
- IC50 (Coagulation factor XII): > 50 µM (inactive)

Compound: O=C(O)COc1ccc(NC(=O)COc2ccc(Cl)cc2)cc1
- IC50 [12]: > 100 µM (inactive)
- IC50 [13]: > 100 µM (inactive)
- IC50 [14]: > 100 µM (inactive)
- IC50 [15]: > 100 µM (inactive)
- IC50 [16]: > 100 µM (inactive)
- IC50 [17]: > 100 µM (inactive)

Compound: Cc1ccc(/C=C(\C#N)C(=O)Nc2cccc3ncccc23)o1
- IC50 [18]: 26.6 µM (active)
- IC50 [19]: 23.6 µM (active)
- IC50 [20]: 17.4 µM (active)
- IC50 [21]: > 25 µM (inactive)
- AC50 [22]: 0.701 µM (active)

Compound: O=C(Nc1ccc(Br)cc1)c1ccc(N2C(=O)C3CC=CCC3C2=O)cc1 (stereo unspecified)
- IC50 [23]: > 20 µM (inactive)

Compound: CCCCN=C(S)N=Nc1c(O)[nH]c2ccccc12
- IC50 (Bcl-2-related protein A1): > 20 µM (inactive)
- IC50 [24]: 8.6 µM (active)
- IC50 [25]: 5.96 µM (active)
